Measurements reported in US20090148546A1, “Methods and compounds fo rthe treatment of obesity and obesity-related disorders” (priority 2005, published 2009).

System: 3T3-L1 cells
Assay: Adipogenesis: differentiation of 3T3-L1 cells into adipocytes, oil red-O staining
Format: cell-based, mouse
Settings: 10 days
From the text: It is reported here for the first time that capsaicin is a potent inhibitor of adipogenesis. The accepted model for the process of adipogenesis is the differentiation of mouse-derived 3T3-L1 fibroblasts into adipocytes after treatment with potent inducers such as dexamethasone, isobutyrylmethylxanthine, and insulin. In this model, the adipocytes are identified by the accumulation of lipid droplets in the cytoplasm. We tested the effect of the presence or absence of capsaicin on this process.
NIH 3T3-L1 cells were obtained from American Type Culture Collection (Manassas, Va.). NIH 3T3-L1 cells are a mouse-derived fibroblast cell line that convert into adipocytes under certain conditions. This cell system is well known in the art and is a standard model for the study of adipocyte metabolism. The cells were cultured using well known methods in complete medium (Dulbecco Modified Eagle's Medium (DMEM) (4500 mg glucose/liter) containing 10% fetal bovine serum (FBS)). When the cells were 75% confluent, they were subcultured into multi-well culture plates and allowed to grow to confluency. The differentiation of the cells into adipocytes was initiated by switching to inducing medium (complete medium containing 10 uM dexamethasone, 0.5 mM isobutyrylmethylxanthine, and 10 ug/ml insulin). 1 ug/ml and 0.5 ug/ml doses of capsaicin were added to a number of the culture wells. After 48 hours, the inducing medium was replaced with maintenance medium 1 (complete medium containing insulin (10 ug/ml) with or without capsaicin). After 24 hours, the cells were switched to maintenance medium 2 (complete medium with or without capsaicin). The cultures were followed for up to 10 days for differentiation into adipocytes. The culture medium was replaced every 2 days with a medium of similar composition. The cells were photographed every 2 days to follow their progress. On day 10, the cells were stained with oil red-O (to stain for intracellular lipid) and photographed.

Q: What does the source list for `COc1cc(CNC(=O)CCCC/C=C/C(C)C)ccc1O` [capsaicin, trans-8-methyl-N-vanillyl-6-nonenamide]?
A: differentiation into adipocytes (0.5 ug/ml and 1 ug/ml): did not become adipocytes; lipid accumulation (oil red-O stain) (0.5 ug/ml, FIG. 2): significant decrease in lipid accumulation; lipid accumulation (oil red-O stain) (1 ug/ml, FIG. 3): significant decrease in lipid accumulation
